From patent US20240124445A1, “BENZENE RING COMPOUND AND USE THEREOF” (NANJING SHIJIANG MEDICINE TECHNOLOGY CO., LTD, priority 2020, published 2024)
pIC50: −log10 of the molar value. Like-named read-outs stand apart in the source and are kept apart here.

Assays:
SF-126 = experiment: Cell viability (CellTiter-Glo) of SF-126; assay type: cell-based; details: Homo sapiens, 72 h; SF-126, 3 days of culture
Procedure: (§1) Cell viability was detected using the Promega CellTiter-Glo kit, the kit reflected cell viability by directly measuring intracellular ATP content. In the experiment, the IC50 value of different compounds on different tumor cell lines was detected to determine cell lines that were sensitive or insensitive to different compounds.
(§2) Tumor cells were cultured in 10% FBS-containing medium (+p/s), and incubated for 3 h or the following day, then the gradient diluted compound was added. After 3 days of culture, the relevant IC50 (50% inhibiting concentration) was measured. The name, source and culture conditions of each tumor cell line were as follows: […]

SW48 = experiment: Cell viability (CellTiter-Glo) of SW48; assay type: cell-based; details: Homo sapiens, 72 h; SW48, 3 days of culture, Table 5; read-out: IC50 SW48
Procedure: (§3) Cell viability was detected using the Promega CellTiter-Glo kit, the kit reflected cell viability by directly measuring intracellular ATP content. Different cancer cells was cultured in medium, the 50% inhibiting concentration (IC50) of compound AB24852 on cancer cells was determined using Promega CellTiter-Glo kit. The name, source and culture conditions of each tumor cell line were as follows:
Cell line SW48 (ATCC, No. CCL-231) was cultured in 10% fetal bovine serum-containing Leibovitz's L-15 medium (+P/S).
as §1, §2

GB-1 = experiment: Cell viability (CellTiter-Glo) of GB-1; assay type: cell-based; details: Homo sapiens, 72 h; GB-1, 3 days of culture
Procedure: as §1
(§4) Tumor cells were cultured in 10% FBS-containing medium (+p/s), and incubated for 3 h or the following day, then the gradient diluted compound was added. After 3 days of culture, the relevant IC50 (50% inhibiting concentration) was measured. The name, source and culture conditions of each tumor cell line were as follows:
Cell line GB-1 (JCRB, No. IF050489) was cultured in 10% fetal bovine serum-containing DMEM medium (+P/S).

CFPAC-1 = experiment: Cell viability (CellTiter-Glo) of CFPAC-1; assay type: cell-based; details: Homo sapiens, 72 h; CFPAC-1, 3 days of culture
Procedure: as §1, §4
Cell line CFPAC-1 (ATCC, No. CRL-1918) was cultured in 10% fetal bovine serum-containing IMDM medium (+P/S).

NCI-H82 cell = experiment: Cell viability (Promega CellTiter-Glo) of NCI-H82 cell; assay type: cell-based; details: Homo sapiens
Procedure: Cell viability was detected using the Promega CellTiter-Glo kit, the kit reflected cell viability by directly measuring intracellular ATP content. Small cell lung cancer cell NCI-H82 (ATCC, No. HTB-175) was cultured in 10% fetal bovine serum-containing RPMI1640 medium (+P/S).
(§5) Cell viability was detected using the Promega CellTiter-Glo kit, the kit reflected cell viability by directly measuring intracellular ATP content.
(§6) Daoy cell was cultured in 10% fetal bovine serum-containing DMEM medium (+P/S), and NCI-H82 cell was cultured in 10% fetal bovine serum-containing RPMI1640 medium (+P/S).
as §1, §4
Cell line NCI-H82 (ATCC, No. HTB-175) was cultured in 10% fetal bovine serum-containing RPMI1640 medium (+P/S).

G-401 = experiment: Cell viability (CellTiter-Glo) of G-401; assay type: cell-based; details: Homo sapiens, 72 h; G-401, 3 days of culture, Table 5; read-out: IC50 G-401
Procedure: as §3
Cell line G-401 (ATCC, No. CRL-1441) was cultured in 10% fetal bovine serum-containing McCoy's 5a medium (+P/S).
as §1, §2

[1] = Stability in human liver microsome; assay type: in vitro ADME; details: liver microsomes, pH 7.4, 1.5 μM drug solution, NADPH, 37° C., read-out: Human T1/2
Procedure: Vortexing for 10 min, the sample was centrifuged with 5594×g for 15 min in centrifuger (Thermo Multifuge×3R). • 10) taking 50 μL supernatant from the centrifuged sample, transferred to 96 well sample plate contain 50 μL water, mixed, and the sample was analyzed using LC-MS/MS.

MDA-MB-453 = experiment: Cell viability (CellTiter-Glo) of MDA-MB-453; assay type: cell-based; details: Homo sapiens, 72 h; MDA-MB-453, 3 days of culture, Table 5; read-out: IC50 MDA-MB-453
Procedure: as §3
Cell line MDA-MB-453 (ATCC, No. HTB-131) was cultured in 10% fetal bovine serum-containing Leibovitz's L-15 medium (+P/S).
as §1, §2

786-O = experiment: Cell viability (CellTiter-Glo) of 786-O; assay type: cell-based; details: Homo sapiens, 786-0, 72 h, 3 days of culture
Procedure: as §1, §4
Cell line 786-0 (ATCC, No. CRL-1932) was cultured in 10% fetal bovine serum-containing RPMI1640 medium (+P/S).

Daoy cell = experiment: Cell viability (CellTiter-Glo) of Daoy cell with or without CsA; assay type: cell-based; details: Homo sapiens
Procedure: as §5, §6

[2] = 72 h, NCI-H82, 3 days of culture, Table 5, read-out: IC50 NCI-H82
[3] = NCI-H82 cell, Table 1, read-out: IC50
[4] = NCI-H82, read-out: IC50 NCI-H82 cell without CsA
[5] = read-out: IC50 Daoy cell with CsA
[6] = read-out: IC50 Daoy cell without CsA

| SMILES | pIC50 (NCI-H82 cell; [3]) | half-life at 1 µM [1] [h] | pIC50 (NCI-H82 cell; [4]) | pIC50 (SF-126) | pIC50 (SW48) | pIC50 (GB-1) | pIC50 (CFPAC-1) | pIC50 (NCI-H82 cell; [2]) | pIC50 (G-401) | pIC50 (MDA-MB-453) | pIC50 (786-O) | pIC50 (NCI-H82 cell; NCI-H82) | pIC50 (NCI-H82 cell; NCI-H82, 72 h, read-out: IC50 NCI-H82) | pIC50 (Daoy cell; [5]) | pIC50 (Daoy cell; [6]) |
| --- | --- | --- | --- | --- | --- | --- | --- | --- | --- | --- | --- | --- | --- | --- | --- |
| O=C(C[n+]1ccc(NCc2ccccc2)cc1)c1cccc(Cl)c1 [AB24805A] | 6.43 | 3.71 |  | 5.50 | 6.12 | 5.46 | 4.45 | 6.43 | 6.38 | 6.68 | 4.33 |  |  |  |  |
| O=C(C[n+]1ccc(NCc2ccccc2)cc1)c1ccc(Br)cc1 [AB24808A] | 6.21 | 5.69 |  | 5.53 | 5.75 | 5.28 | 4.70 | 6.21 | 6.04 | 6.44 | 4.36 |  |  |  |  |
| O=C(C[n+]1ccc(NCc2ccccc2)cc1)c1ccc(C(F)(F)F)cc1 [AB24809A] | 5.61 | 6.64 |  | 4.43 | 5.12 | < 4.30 | < 4.30 | 5.61 | 5.52 | 5.75 | < 4.30 |  |  |  |  |
| O=C(C[n+]1ccc(NCc2ccccc2)cc1)c1ccc(OC(F)(F)F)cc1 [AB24810A] | 5.87 | 65.2 |  | 4.88 | 5.67 | 4.61 | 4.44 | 5.87 | 5.71 | 5.57 | < 4.30 |  |  |  |  |
| O=C(C[n+]1ccc2[nH]cc(Cc3ccccc3)c2c1)c1ccc(Cl)cc1 [AB24833A] |  |  |  | 4.67 | 5.09 | 4.66 | 4.60 |  | 5.28 | 5.28 | 4.34 | 5.47 | 5.47 |  |  |
| Cc1ccc(C(=O)C[n+]2ccc(NCc3ccccc3)cc2)cc1 [AB24845A] | 6.92 |  |  | 5.64 | 6.85 | 5.36 | 4.53 | 6.92 | 6.52 | 6.72 | 4.41 |  |  |  |  |
| Cc1ccc(C(=O)C[n+]2ccc(NCc3ccccc3)nc2)cc1 [AB24846] | 6.29 |  |  | 5.44 | 5.69 | 4.91 | 4.44 | 6.29 | 6.16 | 6.09 | 4.33 |  |  |  |  |
| O=C1c2cc(Cl)ccc2CCC1[n+]1ccc2c(c1)CCC(c1ccccc1)N2 (stereo not shown) [AB27130] | 6.11 | 5.96 | 6.11 |  |  |  |  |  |  |  |  |  |  | 6.51 | 5.26 |
| O=C1c2cc(C(F)(F)F)ccc2CCC1[n+]1ccc2c(c1)CCC(c1ccccc1)N2 (stereo not shown) [AB27131] | 6.36 | 6.81 | 6.36 |  |  |  |  |  |  |  |  |  |  | 6.15 | 5.32 |
| CC(c1ccccc1)[n+]1ccc2c(ccn2C2CCc3ccc(Cl)cc3C2=O)c1 (stereo not shown) [AB27141] | 8.00 | 4.85 | 8.00 |  |  |  |  |  |  |  |  |  |  | 7.55 | < 6.00 |
| O=C1c2cc(OC(F)(F)F)ccc2CCC1[n+]1ccc(NCc2ccccc2)cc1 (stereo not shown) [AB27156] | 6.59 | 17.5 | 6.59 |  |  |  |  |  |  |  |  |  |  | 6.62 | 5.98 |

Continued, in another order:

| pIC50 (NCI-H82 cell; [3]) | half-life at 1 µM [1] [h] | pIC50 (NCI-H82 cell; [4]) | SMILES | pIC50 (SF-126) | pIC50 (SW48) | pIC50 (GB-1) | pIC50 (CFPAC-1) | pIC50 (NCI-H82 cell; [2]) | pIC50 (G-401) | pIC50 (MDA-MB-453) | pIC50 (786-O) | pIC50 (NCI-H82 cell; NCI-H82) | pIC50 (NCI-H82 cell; NCI-H82, 72 h, read-out: IC50 NCI-H82) | pIC50 (Daoy cell; [5]) | pIC50 (Daoy cell; [6]) |
| --- | --- | --- | --- | --- | --- | --- | --- | --- | --- | --- | --- | --- | --- | --- | --- |
| 7.52 | 1.77 |  | O=C1c2cc(Cl)ccc2CCC1[n+]1ccc2c(ccn2Cc2ccccc2)c1 (stereo not shown) [AB27124] |  |  |  |  |  |  |  |  |  |  |  |  |
| 6.96 | 14.2 | 6.96 | O=C1c2cc(C(F)(F)F)ccc2CCC1[n+]1ccc2c(ccn2Cc2ccccc2)c1 (stereo not shown) [AB27125] |  |  |  |  |  |  |  |  |  |  | 6.72 | 5.84 |
| 6.82 | 20.8 | 6.82 | O=C1c2cc(OC(F)(F)F)ccc2CCC1[n+]1ccc2c(ccn2Cc2ccccc2)c1 (stereo not shown) [AB27126] |  |  |  |  |  |  |  |  |  |  | 6.55 | 5.71 |
| 7.22 | 12.4 |  | Cc1cn(Cc2ccccc2)c2cc[n+](C3CCc4ccc(Cl)cc4C3=O)cc12 (stereo not shown) [AB27142] |  |  |  |  |  |  |  |  |  |  |  |  |
| 6.80 | 75.2 | 6.80 | O=C1c2cc(C(F)(F)F)ccc2CCC1[n+]1ccc(NCc2ccccc2)cc1 (stereo not shown) [AB27144] |  |  |  |  |  |  |  |  |  |  | 6.68 | 5.99 |
